Here are results for 2 compounds from article PMC6130489, “Caffeic acid methyl and ethyl esters exert potential antidiabetic effects on glucose and lipid metabolism in cultured murine insulin-sensitive cells through mechanisms implicating activation of AMPK” (Pharmaceutical Biology, 2017).

The subject of one series is L6 GLUT4myc myotubes. The series is described as follows: 3H-Deoxyglucose uptake assay. In kind it is cell-based, rat. The note with it: 50 μM, 18 h; for 2-deoxyglucose uptake rate: basal (DMSO) 10.1 ± 0.5. As to the method: Measurement of glucose uptake was performed as previously described (Eid et al. [2010]) using [^3H]-2-deoxyglucose (TRK-383, Amersham Biosciences, Buckinghamshire, UK). Nonspecific uptake was measured in the presence of cytochalasin B (10 μM) and was subtracted from all values.
Figure 1. (A) CAME and CAEE increase ^3H-deoxyglucose uptake in L6 GLUT4myc myotubes. Cells were treated with 50 μM of either CAME, CAEE, or with vehicle (0.1% DMSO) for 18 h. 100 nM insulin served as the positive control and was applied for the last 15 min of the treatment in vehicle-treated cells. Glucose uptake was performed as described in Materials and Methods section. (B) CAME and CAEE stimulate GLUT4 translocation in L6 GLUT4myc myotubes. Cells were treated as previously described, cell surface GLUT4myc was detected by an enzyme-linked colorimetric assay. By the end of the treatment, L6- GLUT4myc cells were labeled with anti-c-myc antibody as described in Materials and Methods section. Results represent the means ± SEM of three independent experiments, and 3-4 cells were analyzed for each condition per experiment. *Indicates a significant (p ≤ 0.05) difference, **(p < 0.01) from the vehicle control group as assessed by ANOVA. […] L6 myotubes treated with CAME or CAEE (50 μM each), DMSO (0.1%) for 18 h. Insulin (100 nM) and AICAR (2 mM) both applied for 30 min and served as positive controls. Immunoblots were probed with anti phospho-AMPK (Thr 172), anti-GLUT4, anti-GLUT1 and anti-phospho-Akt (Ser 473) antibodies as described in Materials and Methods section. Anti-β-actin antibody was used as a loading control. Representative blots are shown in panel C. Data are expressed as (D) phospho-AMPK/β-actin, (E) GLUT4/β-actin and (F) GLUT1/β-actin and are given as mean ± SEM from 3 experiments. *p < 0.05 indicates a significant difference, **(p < 0.01) from the vehicle control group.

In another series the test system is 3T3-L1 pre-adipocytes. In words: Thymidine incorporation assay (mitotic clonal expansion). In kind it is cell-based. The note with it: Mus musculus, 3T3-L1 cells undergoing mitotic clonal expansion; for IC50: read-out: thymidine incorporation inhibition IC50. The method, then:
To assess for the inhibitory activity of CAME and CAEE on and mitotic clonal expansion of 3T3-L1 adipocytes, cells were separately treated with 12.5, 25, 50 and 100 μM of CAME or CAEE for […] in differentiation media and the incorporation of radio-labeled methyl-^3H-thymidine (MP Biomedicals cat #240410, Irvine, CA) into the newly replicated DNA was measured as described elsewhere (Martineau et al. [2010]). The incorporated radioactivity was measured in a liquid scintillation counter (LKB Wallac 1219 Rackbeta; Perkin Elmer Life and Analytical Sciences, Inc., Boston, MA).
Figure 3. (A and B) Anti-adipogenic effect of CAME and CAEE in 3T3-L1 adipocytes. Cells were treated with several concentrations (12.5, 25, 50 and100 μM) of either CAME or CAEE in DMEM containing 10% FBS and the standard adipogenic cocktail (500 μM 3-isobutyl-1-methylxanthine, 500 nM insulin and 10 μM dexamethasone) for 2 days then in DMEM containing 10% FBS and 500 nM insulin starting from days 2-8 of differentiation. This medium was changed every 2 days. (A) On day 8, lipid content was measured by AdipoRed assay. Results represent the means ± SEM of three independent experiments. *Indicates a significant (p ≤ 0.05) difference, **(p < 0.01), ***(p < 0.001) from the vehicle control group. […] Vehicle-treated cells show the presence of lipid droplets. On the other hand, cells treated with the maximum nontoxic concentration (100 μM) of either CAME or CAEE retained the fibroblast-like morphology of pre-adipocytes and were devoid of lipid droplets. (C) CAME and CAEE inhibit pre-adipocyte clonal expansion. Confluent 3T3-L1 pre-adipocytes undergoing clonal expansion in response to differentiation cues were treated with vehicle or 12.5, 25, 50 and 100 μM of either CAME or CAEE for 20 h and incorporation of ^3H-labeled thymidine was measured. Normalized data are presented as mean ± SEM of three independent experiments. **Indicates a significant (p ≤ 0.01) difference, ***(p < 0.001) from the vehicle control group.
On the technique in general: Uptake of a labelled nucleoside into DNA is a usual measure of proliferation.

Series [1] relates to AMPK. The series is described as follows: Western immunoblot phospho-AMPK in L6 myotubes. In kind it is cell-based, rat. The note with it: 50 μM, 18 h, phospho-AMPK/β-actin. As to the method: L6 cells myotubes, H4IIE cells and 3T3-L1 adipocytes were treated with either CAME, CAEE (50 μM each) or vehicle (DMSO) for 18 h. Insulin (100 nM) or aminoimidazole carboxamide ribonucleotide (AICAR; 1 mM) were added to some vehicle-treated wells 30 min prior to the end of the treatment and served as the positives controls. Protein content was assayed by the bicinchoninic acid method (Thermo Scientific Pierce Protein Research, Rockford, IL) standardized to bovine serum albumin. Western immunoblotting was performed as described elsewhere (Eid et al. [2010]). Membranes were incubated overnight with phospho-AMPK, phospho-Akt, GLUT4, GLUT1 and β-actin antibodies (1:1000 dilution, Cell Signalling Technology, Danvers, MA), or with PPAR-γ, SREBP-1 (1:200, Santa Cruze Biotechnology, Santa Cruz, CA), followed by incubation with HRP-coupled secondary antibody (1:10,000) for 1 h. Immunoreactive bands were visualized by enhanced chemiluminescence and quantified by the Scion Image program (Scion Corporation, Frederick, MD). Experiments were repeated on 3 different passages of cells, each passage containing all conditions in parallel.
Figure 1. (A) CAME and CAEE increase ^3H-deoxyglucose uptake in L6 GLUT4myc myotubes. Cells were treated with 50 μM of either CAME, CAEE, or with vehicle (0.1% DMSO) for 18 h. 100 nM insulin served as the positive control and was applied for the last 15 min of the treatment in vehicle-treated cells. Glucose uptake was performed as described in Materials and Methods section. […] Cells were treated as previously described, cell surface GLUT4myc was detected by an enzyme-linked colorimetric assay. […] Results represent the means ± SEM of three independent experiments, and 3-4 cells were analyzed for each condition per experiment. *Indicates a significant (p ≤ 0.05) difference, **(p < 0.01) from the vehicle control group as assessed by ANOVA. […] Data are expressed as (D) phospho-AMPK/β-actin, (E) GLUT4/β-actin and (F) GLUT1/β-actin and are given as mean ± SEM from 3 experiments. *p < 0.05 indicates a significant difference, **(p < 0.01) from the vehicle control group.
For orientation: Immunoblotting shows a protein as a band on a membrane.

The next series concerns C2C12 cells. Also noted: method as in Eid et al. [2010]. The note with it: cultured C2C12 cells; ref Eid et al. [2010]; cited from earlier work.
Series [2] deals with AMPK. In words: Western immunoblot phospho-AMPK in H4IIE cells. In kind it is cell-based, rat. To be noted: 50 μM, 18 h, AICAR 1 mM 30 min as positive control. As to the method: L6 cells myotubes, H4IIE cells and 3T3-L1 adipocytes were treated with either CAME, CAEE (50 μM each) or vehicle (DMSO) for 18 h. Insulin (100 nM) or aminoimidazole carboxamide ribonucleotide (AICAR; 1 mM) were added to some vehicle-treated wells 30 min prior to the end of the treatment and served as the positives controls. Protein content was assayed by the bicinchoninic acid method (Thermo Scientific Pierce Protein Research, Rockford, IL) standardized to bovine serum albumin. Western immunoblotting was performed as described elsewhere (Eid et al. [2010]). […] Immunoreactive bands were visualized by enhanced chemiluminescence and quantified by the Scion Image program (Scion Corporation, Frederick, MD). […]
Figure 2. […] (A) H4IIE hepatocytes were treated for 16 h with several concentrations (12.5, 25, 50 and100 μM) of either CAME or CAEE and G6Pase activity was determined colorimetrically using a commercial glucose assay kit as described under Materials and Methods. […] (D) Data are expressed as phospho-AMPK/pan-AMPK and are given as mean ± SEM from 3 experiments. *p < 0.05 indicates a significant difference, **(p < 0.01), ***(p < 0.001) from the vehicle control group.

As a reminder, the inhibition is the share of the control response that was lost under treatment. High values mean a response far below the control, low ones a response near the control.

On to `CCOC(=O)/C=C/c1ccc(O)c(O)c1` [CAEE, caffeic acid ethyl ester], for which, in the series on L6 GLUT4myc myotubes, the “glucose uptake, percent of DMSO control” value was found to be 216 ± 19% and the 2-deoxyglucose uptake rate worked out at 21.9 ± 1.0 pmol/min/mg protein. Besides, in the series on 3T3-L1 pre-adipocytes, the IC50 was determined as 13.1 µM and 100 µM produced 86.9 ± 3% inhibition. In the series on AMPK [1], the “AMPK phosphorylation, fold increase over DMSO” value is 11 fold. Moreover, the toxicity result in the series with C2C12 cells was “no or little toxicity”. Besides, in the series on AMPK [2], the AMPK phosphorylation result is listed as “increase in AMPK phosphorylation to the same extent as the positive control AICAR”.

On to `COC(=O)/C=C/c1ccc(O)c(O)c1` [CAME, CA methyl ester], for which, in the series with L6 GLUT4myc myotubes, the “glucose uptake, percent of DMSO control” value turned out to be 184 ± 16% and the 2-deoxyglucose uptake rate is 18.7 ± 0.8 pmol/min/mg protein. Moreover, in the series with 3T3-L1 pre-adipocytes, the IC50 is 39.4 µM and at 100 µM the inhibition was 92.7 ± 2.6%. Moreover, the “AMPK phosphorylation, fold increase over DMSO” value in the series with AMPK [1] was 13 fold. For the same compound, the toxicity result with C2C12 cells is recorded as “no or little toxicity”. The AMPK phosphorylation result in the series on AMPK [2] was “increase in AMPK phosphorylation to the same extent as the positive control AICAR”.
